Reference: patent US9878992B2, “GDF-8 inhibitors” (Rigel Pharmaceuticals, Inc., priority 2012, dated 2018)

Each molecule was assayed against MAP4K4 (Homo sapiens, UniProt O95819) (assay: MAP4K4 inhibition). Settings: not given.
Type: biochemical
From the text: Such compounds are particularly useful in muscle disorders, such as cachexia and sarcopenia as MAP4K4 acts as a suppressor of skeletal muscle differentiation. See, Wang M, Amano S U, Flach R J, Chawla A, Aouadi M, Czech P. Molecular and cellular biology. 2013 February; 33(4): 678-87.

MAP4K4, sequence (O95819 whole entry, species assumed): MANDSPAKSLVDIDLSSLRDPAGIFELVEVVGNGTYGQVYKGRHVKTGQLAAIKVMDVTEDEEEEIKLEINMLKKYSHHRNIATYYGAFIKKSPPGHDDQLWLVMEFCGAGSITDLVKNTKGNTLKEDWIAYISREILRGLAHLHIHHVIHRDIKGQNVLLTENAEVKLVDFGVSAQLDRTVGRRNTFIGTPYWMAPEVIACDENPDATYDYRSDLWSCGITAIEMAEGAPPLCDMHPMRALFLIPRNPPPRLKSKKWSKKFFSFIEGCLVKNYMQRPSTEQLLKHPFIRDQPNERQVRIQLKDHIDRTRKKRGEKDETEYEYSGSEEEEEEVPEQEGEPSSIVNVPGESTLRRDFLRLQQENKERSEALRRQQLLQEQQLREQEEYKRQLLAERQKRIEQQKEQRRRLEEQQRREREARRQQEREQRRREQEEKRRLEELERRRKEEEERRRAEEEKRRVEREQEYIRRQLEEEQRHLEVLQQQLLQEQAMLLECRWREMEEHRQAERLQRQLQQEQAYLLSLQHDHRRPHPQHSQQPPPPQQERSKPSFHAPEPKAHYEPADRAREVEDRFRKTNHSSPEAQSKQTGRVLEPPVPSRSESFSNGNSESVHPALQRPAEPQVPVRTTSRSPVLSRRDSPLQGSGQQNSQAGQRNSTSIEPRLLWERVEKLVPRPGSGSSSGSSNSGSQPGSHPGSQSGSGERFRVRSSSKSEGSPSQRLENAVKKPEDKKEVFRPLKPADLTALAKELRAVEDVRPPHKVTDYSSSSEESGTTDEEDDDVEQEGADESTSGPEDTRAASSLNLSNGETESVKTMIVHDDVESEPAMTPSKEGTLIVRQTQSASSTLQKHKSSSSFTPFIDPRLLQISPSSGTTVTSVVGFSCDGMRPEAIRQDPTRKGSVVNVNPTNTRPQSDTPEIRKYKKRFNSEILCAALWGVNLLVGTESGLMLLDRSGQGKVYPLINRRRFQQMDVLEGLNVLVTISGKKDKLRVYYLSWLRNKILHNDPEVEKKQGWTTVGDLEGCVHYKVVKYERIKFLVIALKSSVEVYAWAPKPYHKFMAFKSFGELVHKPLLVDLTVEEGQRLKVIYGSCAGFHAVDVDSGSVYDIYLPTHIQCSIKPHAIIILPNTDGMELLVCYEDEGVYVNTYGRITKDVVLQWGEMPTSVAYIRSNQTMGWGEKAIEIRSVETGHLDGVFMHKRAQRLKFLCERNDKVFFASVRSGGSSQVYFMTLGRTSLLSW

SMILES | IC50 [nM]
Nc1ncnc2ccc(-c3cccnc3-c3cc(Cl)ccc3F)cc12 [Compound 818, 6-(2-(5-Chloro-2-fluorophenyl)pyridin-3-yl)quinazolin-4-amine] | < 500
Nc1ncnc2ccc(-c3cccnc3-c3cc(O)cc(F)c3)cc12 [Compound 494, 3-(3-(4-Aminoquinazolin-6-yl)pyridin-2-yl)-5-fluorophenol] | < 500
Nc1ncnc2ccc(-c3cccnc3-c3ccc(F)c(Cl)c3)cc12 [Compound 448, 6-(2-(3-Chloro-4-fluorophenyl)pyridin-3-yl)quinazolin-4-amine] | < 500
Nc1ncnc2ccc(-c3cccnc3-c3cc(F)cc(Cl)c3)cc12 [Compound 460, 6-(2-(3-Chloro-5-fluorophenyl)pyridin-3-yl)quinazolin-4-amine] | < 500
Cc1cc(-c2ncccc2-c2ccc3[nH]ncc3c2)ccc1F [Compound 63, 5-(2-(4-Fluoro-3-methylphenyl)pyridin-3-yl)-1H-indazole] | < 500
Nc1ncnc2ccc(-c3cccnc3-c3cccc(O)c3)cc12 [Compound 456, 3-(3-(4-Aminoquinazolin-6-yl)pyridin-2-yl)phenol] | < 500
O=c1nc[nH]c2ccc(-c3cccnc3-c3cccc(Cl)c3)cc12 [Compound 389, 6-(2-(3-Chlorophenyl)pyridin-3-yl)quinazolin-4(1H)-one] | < 500

What follows are molecules tested on GDF8 signaling (assay: AlphaScreen SureFire SMAD3 (p-Ser423/425) assay, GDF8-stimulated cells). Settings: Mus musculus, MPC-11, inhibition of GDF8 signaling; pSMAD readout; MPC11; read-out: GDF pSMAD (MPC11).
Type: cell-based
From the text: [The procedure below names another cell line; the source lists this cell line under the same test.] The p-SMAD-3 (Ser423/425) SureFire® assay has been designed to measure the phosphorylation of endogenous cellular p-SMAD-3 (Ser423/425) in cell lysates and is a system for the screening of both modulators of receptor activation (e.g. agonists and antagonists) as well as agents acting intracellularly, such as small molecule inhibitors of upstream events. The assay will measure p-SMAD-3 (Ser423/425) activation by either cloned or endogenous receptors, and can be applied to primary cells.
P-SMAD-3 (Ser423/425) SureFire® Assay Protocols
Step A: Preparation of Buffers
1× Lysis buffer: 1 ml of 5× Lysis buffer was diluted with 4 ml of sterile water. After dilution, excess 1× Lysis buffer can be frozen and thawed up to 5 times without loss in activity.
Activation buffer: The buffer was warmed slowly to 37° C. and gently mixed to re-suspend. Activation buffer can be stored at room temperature with no loss in activity.
Reaction buffer: The buffer was kept at 4° C. while in use.
AlphaScreen® Protein A IgG Kit: The kit was stored at 4° C. in the dark.
Reaction buffer+Activation buffer+AlphaScreen® Acceptor beads: Reaction buffer (40 parts), Activation Buffer (10 parts) and Acceptor beads (1 part) were mixed and the mixture was stored at room temperature and used the same day. Mixture was added to 384-well plates; excess mixture was discarded.
Dilution buffer+AlphaScreen® Donor beads: Dilution buffer (20 parts) and Donor beads (1 part) were mixed and the mixture was stored at room temperature and used the same day. Excess mixture was discarded.
Assay control samples: After reconstitution in 250 μl of water, lysates were at −20° C. in single use aliquots.
Step B: Preparation of Samples and Cells
96-well Assay Protocol for 293FT and RMS13 adherent cells can be carried out manually or in high throughput with liquid handling robots.
The cells (80 μL, of cells for 96 well plates) were plated in collagen coated tissue culture plates in RPMI or FreeStyle medium (Invitrogen) and incubated overnight. For manual analysis, 6 plates for GDF8, 6 plates for TGFβ, and optionally 6 plates for Alk5ca (ALK5 constitutively active) were used.
The compound dilution plates were prepared as follows: 12 μL of DMSO was transferred into first column of 96-well plate, and 16 μL of DMSO was transferred into columns 2-12 of the 96-well plate. 12 μL of compound solution was transferred into first column of the DMSO-containing 96-well plate. Three-fold dilution was performed up to column 10 of the DMSO-containing 96-well plate.
Step C: Treatment and Analysis
The plate containing cells were treated with compounds for about 10 minutes, and then ligand was added. GDF8 or TGFb was added to plates to stimulate. 293FL cells were stimulated for 90 minutes at 37° C.; and RMS13 cells were stimulated for 60 minutes at 37° C. The medium was then removed from the cells, and 1× Lysis Buffer (about 25 μL) was added and the plate was gently agitated on plate shaker for 5-10 minutes.
The lysate (5 μL) was then placed into 384-well shallow plates avoiding the generation of bubbles. To this, the Reaction Buffer+Activation Buffer+AlphaScreen® Acceptor beads mixture (5 μL) was added. The plate was sealed with adhesive cover and shielded from light (e.g., with metal foil), and agitated gently on plate shaker for 2 hours at room temperature.
Dilution buffer+AlphaScreen® Donor beads (2 μL) was then added, and the plate was intubated on the plate shaker for an additional 1½ hours. After completion, the plate was read on Synergy-4 or Enspire plate reader, using AlphaScreen® pSMAD3® settings.

SMILES | IC50 [nM]
Fc1ccc(Cl)cc1-c1ncccc1-c1ccc2nccn2n1 [Compound 937, 6-(2-(5-Chloro-2-fluorophenyl)pyridin-3-yl)imidazo[1,2-b]pyridazine] | 207
Cc1cccc(-c2ncccc2-c2ccc3ncccc3c2)c1 [Compound 208, 6-(2-m-Tolylpyridin-3-yl)quinoline] | 1150
COc1cc(-c2cnc3ccc(-c4cccnc4-c4ccc(F)c(C)c4)cn23)cc(OC)c1OC [Compound 577, 6-(2-(4-Fluoro-3-methylphenyl)pyridin-3-yl)-3-(3,4,5-trimethoxyphenyl)imidazo[1,2-a]pyridine] | 2260
Cc1cc(-c2ncccc2-c2ccn3ncc(C(=O)N[C@@H]4C[C@@H]5CCCN5C(C)(C)C4)c3c2)ccc1F [Compound 745, N-((7R,8aS)-5,5-Dimethyloctahydroindolizin-7-yl)-5-(2-(4-difluoro-3-methylphenyl)pyridin-3-yl)pyrazolo[1,5-a]pyridine-3-carboxamide] | 366
Cc1cccc(-c2ncccc2-c2ccc3ncn(CCCON)c3c2)c1 [Compound 38] | 3230
COc1ncnc2ccc(-c3cccnc3-c3cccc(O)c3)cc12 [Compound 378, 3-(3-(4-Methoxyquinazolin-6-yl)pyridin-2-yl)phenol] | 558
Cc1cc(-c2ncccc2-c2ccc3ncc(C(=O)N[C@@H]4C[C@@H]5CCCN5C(C)(C)C4)n3c2)ccc1F [Compound 744, N-((7R,8aS)-5,5-Dimethyloctahydroindolizin-7-yl)-6-(2-(4-fluoro-3-methylphenyl)pyridin-3-yl)imidazo[1,2-a]pyridine-3-carboxamide] | 968
Cc1cc(-c2ncccc2-c2ccc3ncnc(OCCN4CCOCC4)c3c2)ccc1F [Compound 425, 4-(2-((6-(2-(4-Fluoro-3-methylphenyl)pyridin-3-yl)quinazolin-4-yl)oxy)ethyl)morpholine] | 537
Cc1cc(-c2ncc(F)cc2-c2ccc3[nH]ncc3c2)ccc1F [Compound 10, 5-(5-Fluoro-2-(4-fluoro-3-methylphenyl)pyridin-3-yl)-1H-indazole] | 535
[2H]C([2H])([2H])c1cccc(-c2ncccc2-c2ccc3ncc(C(C)=O)n3c2)c1 [Compound 606, 1-(6-(2-(3-(Methyl-d3)phenyl)pyridin-3-yl)imidazo[1,2-a]pyridin-3-yl)ethan-1-one] | 1440
Cc1cc(-c2ncccc2-c2ccc3ncccc3c2)ccc1F [Compound 207, 6-(2-(4-Fluoro-3-methylphenyl)pyridin-3-yl)quinoline] | 2040
Cc1cc(-c2ncccc2-c2ccc3ncnc(N4CCOCC4)c3c2)ccc1F [Compound 385, 4-(6-(2-(4-Fluoro-3-methylphenyl)pyridin-3-yl)quinazolin-4-yl)morpholine] | 2560
Cc1cc(-c2ncccc2-c2ccc3nn(COP(=O)(O)O)cc3c2)ccc1F [Compound 172, [5-(2-(4-Fluoro-3methylphenyl)pyridin-3-yl)-2H-indazol-2-yl]methyl dihydrogen phosphate] | 187
Cc1cc(-c2ncc(CO)cc2-c2ccc3nccnc3c2)ccc1F [Compound 222, (6-(4-Fluoro-3-methylphenyl)-5-(quinoxalin-6-yl)pyridin-3-yl)methanol] | 5620
